Laboratory results from article PMC7125606 (Antiviral Research, 2009).
Read-outs that look alike come from different tables or passages of the source.

Assays:
MDCK cells = conditions: minimal changes in cell morphology by microscopy
in vitro = conditions: dog
[1] = system: Influenza A/H3N2 (strain X-31); assay: microbe, parasite or virus in culture; assay type: cell-based; conditions: H3N2, MDCK, in Homo sapiens, 72 h
[2] = system: Influenza A/H3N2 (strain A/HK/7/87); assay: microbe, parasite or virus in culture; assay type: cell-based; conditions: H3N2, MDCK, in Homo sapiens, 72 h
[3] = system: Human embryonic lung (HEL) fibroblasts
[4] = system: African green monkey kidney (Vero) cells
influenza virus = assay type: cell-based, human influenza virus; conditions: Ratio of MCC to average EC50, MDCK cells
[5] = system: human cervix epithelial (HeLa) cells
[6] = read-out: Antiviral EC50, Influenza A/H3N2 (strain X-31), CPE
[7] = read-out: Antiviral EC50, Influenza A/H3N2 (strain X-31), MTS
[8] = read-out: Antiviral EC50, Influenza A/H3N2 (strain A/HK/7/87), CPE
[9] = read-out: Antiviral EC50, Influenza A/H3N2 (strain A/HK/7/87), MTS

Structure (SMILES)	Cytotoxicity MCC (minimum cytotoxic concentration) (MDCK cells)	CC50 (in vitro)	EC50 [1, 6]	EC50 [1, 7]	EC50 [2, 8]	EC50 [2, 9]	Cytotoxic concentration MCC, HEL [3]	Cytotoxic concentration MCC, Vero [4]	Selectivity index (influenza virus)	Cytotoxic concentration MCC, HeLa [5]
NC12CC3CC(CC(C3)C1)C2 [Amantadine]	>100 µM	> 100 µM	54 ± 33 µM	45 ± 21 µM	3.9 ± 4.1 µM	3.2 ± 4 µM				
CCC(CC)O[C@@H]1C=C(C(=O)O)C[C@H](N)[C@H]1NC(C)=O [Oseltamivir carboxylate]	>100 µM	> 100 µM	0.027 ± 0.013 µM	0.064 ± 0.078 µM	0.26 ± 0.3 µM	0.23 ± 0.23 µM				
COC(=O)[C@H]1NC(=O)[C@H]2NC(=O)[C@H](NC(=O)[C@@H]3NC(=O)[C@H]4NC(=O)[C@H](NC(=O)[C@H](N)c5ccc(O)c(c5)Oc5cc4cc(O)c5C)[C@H](O)c4ccc(cc4)Oc4cc3cc(c4O)Oc3ccc(cc3)[C@H]2O)c2ccc(O)c(c2)-c2c(O)cc(O)cc21 [Compound 2, aglycoristocetin]	100 µM	44 ± 10 µM	8.4 ± 2.4 µM	10.7 ± 2.5 µM	4.3 ± 2.9 µM	3.2 ± 1.6 µM	≥100 µM	100 µM	15	≥100 µM
NC(=O)c1ncn([C@@H]2O[C@H](CO)[C@@H](O)[C@H]2O)n1 [Ribavirin]	≥100 µM		9 ± 0.04 µM	9.6 ± 2.2 µM	8 ± 2.2 µM	7.6 ± 3 µM				
